Experiments:
[1] = tested on: murine mixed tumor lymophocyte culture (MTLC); test: Mixed tumor lymphocyte culture (MTLC), splenocytes with 2PK3; assay type: cell-based
Procedure: (§1) Figures 50A and 50B illustrate that compound no. 45 inhibits a murine mixed tumor lymophocyte culture (MTLC) and a human mixed leukocyte reaction (MLR). In the MTLC, splenocytes were stimulated (co-culture) with an alloantigen, B cell tumor target cell line (2PK3) in the presence or absence of compound no. 45. Cells were stimulated for 3 days, ^3H-TdR was added and the cells were harvested 4 hours later. Incorporation of ^3H-TdR was determined by liquid scintillation. Background counts were 1000-1200 CPM. For the human MLR, purified peripheral lymphocytes from two HLA disparate individuals were co-cultured for 6 days with or without compound no. 45. On the 7th day the cultures were pulsed with ^3HTdR for 24 hours and counted by scintillation.
In an assay related to the MTLC assay, cytokines levels were measured by ELISA from the supernatants of an MTLC culture. […] 45. Figures 60B and 60C illustrate that compound no.

[2] = tested on: human mixed leukocyte reaction (MLR); test: Mixed leukocyte reaction (MLR), two HLA disparate individuals; assay type: cell-based; settings: 144 h, 6 days co-culture
Procedure: as §1

[3] = tested on: IL-2 receptor beta (p70) subunit; test: IL-2 receptor beta subunit internalization in CT-6.1 cells (flow cytometry); assay type: cell-based, murine; settings: 20 ng/ml IL-2
Procedure: In figure 55, inventive compound no. […] In this assay protocol, CT-6.1 cells were starved overnight and stimulated with 20 ng/ml IL-2. At various times following IL-2 stimulation, cells were rapidly suspended in ice cold PBS and stained using a fluoresceinated monoclonal recognizing the beta subunit of the IL-2 receptor and cell surface expression analyzed by flow cytometry. Figure 55 is a plot of mean fluorescence versus time (in minutes) following IL-2 addition, illustrating that IL-2r beta subunit was rapidly internalized following IL-2 addition with cell surface expression remaining low for 6 hours. Inventive compound no.

[4] = tested on: human foreskin fibroblasts, HS68; test: Prostaglandin E2 release from IL-1α-stimulated fibroblasts; assay type: cell-based; settings: 100 pg/ml IL-1α, 24 hours
Procedure: Figure 61 illustrates that inventive compound no. […] Cells were stimulated with 100 pg/ml IL-1α. Inventive compound no. 45 was added 1 hour prior to stimulation. Supernatants were harvested 24 hours later and levels of PGE2 were analyzed by commercial immunoassay. The results are reported in figure 61 and confirm no effect on PGE2 release.

Balb/3T3 cells = test: Cytotoxicity to PDGF-stimulated Balb/3T3 cells (BCECF); assay type: cell-based; settings: fig. 66B
Procedure: LD50 values were determined using a cytotoxicity assay, as in Example 32. In these assays, Balb/3T3 cells, stimulated with PDGF and treated with one of the above inventive compounds in a manner identical to the tritiated thymidine procedure above, were incubated instead with a viable dye BCECF, a fluorescent dye. Fluorescence was measured using a fluorescent plate reader.

[5] = tested on: human aortic smooth muscle cells (aortic SMC); test: Growth factor-induced proliferation of aortic smooth muscle cells; assay type: cell-based; settings: 5 µM
Procedure: 58. One assay was used for investigating effects on PDGF-induced proliferation of human aortic smooth muscle cells (aortic SMC). Cells, purchased from a commercial supplier (Cell Systems, Inc., Seattle, WA), were cultured with various concentrations of PDGF-BB with and without addition of compound no. 58 (5 µM). […] 58 inhibited PDGF-induced proliferation even at high PDGF concentrations providing maximum proliferative stimulation. In addition, some cultures were treated 1 hour prior to PDGF stimulation with inventive compound no. 58. As shown, PDGF stimulated proliferation in this cell line. Addition of 5 µM of compound no. […] 58 were observed.
Another assay was used for investigating inhibitory effects of inventive compound no. 58 on either basic or acidic FGF-induced proliferation in human aortic smooth muscle cells (aortic SMC). Disregulated bFGF- or aFGF-induced proliferation is linked to SMC proliferation and neointimal occlusion in atherogenesis and restenosis and plays a role in autocrine and paracrine stimulation of tumor cells and tumor cell-induced angiogenesis. In this assay, cells were grown in reduced serum (0.5% fetal calf serum) for 24 hours prior to stimulating with various concentrations of […]. Cells were stimulated with various concentrations overnight of either aFGF or bFGF, adding 5µM of compound no. 58 in selected cultures. Compound no. […] Results shown in figure 20A (aFGF) and figure 20B (bFGF) illustrate the degree of inhibition.
Figures 65A-65F illustrate inhibition of proliferation in either human aortic or pulmonary smooth muscle cells (SMC) by inventive compound no. 58. Procedurally, cells were cultured in 0.5% serum containing medium 24 hours prior to stimulation with various concentrations of either PDGF (figs. 65A and 65B), acidic FGF (figs. 65C and 65D) or basic FGF (figs. 65E and 65F). Cells were stimulated for 24 hours prior to labeling with ^3H-TdR for 4 hours and harvested and counted by scintillation. Compound no. 58 was added 1 hour prior to stimulation at a concentration of 5 µM. Even at points of maximum stimulation of the growth factors, compound no. […] In addition cell number was assessed and those treated with compound no.

[6] = tested on: human umbilical vein endothelial cell line (HUVEC); test: VEGF-induced proliferation of HUVEC; assay type: cell-based
Procedure: This example illustrates an investigation of inhibitory effects of compound no. 58 on Vascular Endothelial Growth Factor (VEGF)-induced proliferation in a human umbilical vein endothelial cell line (HUVEC). In this assay procedure, cells were grown in reduced serum (0.5% fetal calf serum) for 24 hours prior to stimulating with various concentrations of VEGF. […] Compound no.
As illustrated in figures 67A and 67B, inventive compound no. 58 inhibited VEGF-induced proliferation in HUVEC and EGF-induced proliferation in Swiss/3T3 cells, respectively. Procedurally, HUVEC were placed in 0.5% serum containing medium prior to stimulation with various concentrations of VEGF, with or without inventive compound no. 58 (5 µM). Twenty four hours later the cells were pulsed with ^3H-TdR and 4 hours later harvested and counted by scintillation. The IC50 for inhibition was approximately 50-100 nM. Swiss 3T3 cells were stimulated with 20 ng/ml EGF and 24 hours later harvested and counted by scintillation.

HUVEC = test: VEGF-induced HUVEC migration, Matrigel invasion assay system; assay type: cell-based; settings: Homo sapiens, 50 ng/ml VEGF
Text: 58. HUVEC were placed in a Matrigel invasion assay system (Becton Dickinson) and VEGF-induced migration assessed with or without varying concentrations of inventive compound no. 58.

[7] = tested on: human smooth muscle cells (SMC); test: Chemotaxis of smooth muscle cells to PDGF (Boyden chamber); assay type: cell-based; settings: eight hours
Procedure: Figure 71 illustrates that inventive compound no. […] In the assay, cells were seeded in a Boyden chamber with or without various concentrations of inventive compound no. 58. Eight hours later, the number of cells that had migrated were scored visually. Inventive compound no.

IC50 ([1]; Mus musculus, 72 h, 3 days) | IC50 [2] | Structure (SMILES) | IFN-γ release ([1]; ELISA of supernatants) | IL-2 or TNFα release ([1]; ELISA of supernatants) | overall proliferation ([1]; fig. 60A) | IL-2 receptor beta subunit internalization [3] | prostaglandin E2 release [4] | cytotoxicity (Balb/3T3 cells) | inhibition of PDGF-induced proliferation [5] | inhibition of aFGF- and bFGF-induced proliferation [5] | toxic effects [5] | inhibition of proliferation at maximum stimulation by PDGF, acidic FGF or basic FGF ([5]; added 1 hour prior) | cell number following growth factor stimulation ([5]; aortic and pulmonary SMC) | inhibition of VEGF-induced proliferation ([6]; 5 µM) | IC50 ([6]; Homo sapiens, HUVEC, VEGF, 0.5% serum) | IC50 (HUVEC) | PDGF-directed chemotaxis [7]
~500 nM | ~500 nM | CCCCCCCCNCC(O)CCCCCCCCCn1c(=O)c2c(ncn2C)n(C)c1=O (centres unmarked) [compound no. 45] | inhibited IFN-γ release | did not inhibit either IL-2 or TNFα release from the MTLC | inhibition of overall proliferation | did not inhibit this receptor internalization activity | did not have an effect on prostaglandin E2 release | – | – | – | – | – | – | – | – | – | –
– | – | COc1cc(CNCC(O)CCCCCCCCCn2c(=O)c3c(ncn3C)n(C)c2=O)cc(OC)c1OC (centres unmarked) [compound no. 58, 1-[11-(3,4,5-Trimethoxybenzylamino)-10-hydroxyundecyl]-3,7-dimethylxanthine] | – | – | – | – | – | not cytotoxic to Balb/3T3 cells | blocked PDGF-stimulated proliferation | a potent inhibitor of both aFGF- and bFGF-induced proliferation | No toxic effects | completely inhibited cellular proliferation in both aortic and pulmonary SMC | showed no increase in cell number following growth factor stimulation | inhibited VEGF-induced proliferation at all concentrations of VEGF tested | 50 to 100 nM | 100 to 200 nM | had no effect on PDGF-directed SMC chemotaxis
